Assay results taken from US9889130B2, “Substituted 3-benzofuranyl-indol-2-one-3-acetamididopiperazine derivatives, preparation thereof, and therapeutic use thereof” (SANOFI, priority 2009, dated 2018).

How the values were obtained:
[1] = molecular target: T1, ghrelin receptor (Rattus norvegicus, UniProt O08725); assay: Ghrelin antagonism in electrically stimulated rat gastric fundus strips (called In Vivo Test); details: isolated rat gastric fundus strips, electric-field stimulation, ghrelin 0.1 nM-1 μM concentration-response curves, antagonist contact time 30 minutes; read-out: IC50, antagonist activity towards the ghrelin receptor
T1 construct: Strips of approximately 1 cm (5 mm wide) of gastric fundus were cut out along the longitudinal axis; from tissue; host or cells: rat gastric fundus strips
Method: Male Crl CD BR rats (Charles River, Italy) weighing 150-175 g were housed in a chamber at regulated temperature (22±1° C.) and humidity (55±10%) and with a 12-hour lightness-darkness cycle, for at least 7 days before their use. Feed and water were available ad libitum. The feed was removed 18 hours before sacrificing the animals. The rats were sacrificed by cervical dislocation, and the stomach was removed surgically, opened along the shorter curvature and placed in a Krebs solution (of composition (mM): 118.4 NaCl; 4.7 KCl; 2.5 CaCl2; 3.7 NaH2PO4; 1.2 MgSO4; 25 NaHCO3; 5.6 glucose). The animals were cared for and sacrificed according to the Sanofi-Aventis international code of ethics and the international principles governing the care and treatment of laboratory animals (EEC Directive 86/609, DJL358, 1, 12 Dec. 1987). […] The contractions were recorded by computer with a data recording and analysis system (Power Lab, Chart 5) connected to isotonic transducers (Ugo Basile, Varese, Italy) via preamplifiers (Octal Bridge Amp). […] The pKb values for the antagonists were calculated according to the Cheng-Prusoff equation (Kenakin et al., Competitive Antagonism, Pharmacologic Analysis of Drug-Receptor Interaction, 3rd edition, 331-373, Philadelphia, New York; Raven: Lippincott, 1997).

T1 sequence (O08725 whole entry): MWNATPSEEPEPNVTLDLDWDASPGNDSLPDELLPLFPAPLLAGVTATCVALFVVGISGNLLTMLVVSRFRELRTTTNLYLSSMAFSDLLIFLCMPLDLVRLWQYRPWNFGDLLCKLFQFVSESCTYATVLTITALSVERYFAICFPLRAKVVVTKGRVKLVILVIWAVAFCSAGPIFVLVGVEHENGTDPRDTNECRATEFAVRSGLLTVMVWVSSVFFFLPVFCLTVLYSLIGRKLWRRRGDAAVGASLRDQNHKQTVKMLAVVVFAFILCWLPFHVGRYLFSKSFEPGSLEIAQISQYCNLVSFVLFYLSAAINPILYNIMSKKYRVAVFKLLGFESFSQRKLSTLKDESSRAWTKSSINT

Row | melting point [°C] | IC50 [1] [µM] | SMILES
1 | 157 to 160 | – | CCN1C(C)CN(CC(=O)NC2(c3ccc4occc4c3)C(=O)Nc3cc(Cl)cc(Cl)c32)CC1C (single isomer, unassigned; (+)) [Example 1, (+)-N-[4,6-Dichloro-3-(benzofuran-5-yl)-2-oxo-2,3-dihydro-1H-indol-3-yl]-2-(4-ethyl-3,5-dimethylpiperazin-1-yl)acetamide]
2 | 137 to 138 | 0.012 | CCN1CCN(C(C)C(=O)NC2(c3ccc4occc4c3)C(=O)Nc3cc(Cl)cc(Cl)c32)CC1 (single isomer, unassigned; (+)) [Example 2, (+)-N-[4,6-Dichloro-3-(benzofuran-5-yl)-2-oxo-2,3-dihydro-1H-indol-3-yl]-2-(4-ethylpiperazin-1-yl)propionamide]
